Reference: ChEMBL document CHEMBL1201862, “PubChem BioAssay data set” (2004)
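Test compounds were applied to cells in 96-well plates for 48 hours at 5 doses. Here, GI50 denotes the concentration required for 50% inhibition of growth.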 Activity calls are given as the source filed them. No stated cut-off is given here; in the data, active = GI50 up to about 1.1 µM and inactive = higher. Residues, ends and D or L forms follow the SMILES beside them. *: point of attachment. Bn = c1ccc(C*)cc1

Experiments:
Assay in all cases: inhibition of tumour cell growth, NCI panel, 48 h
[1] = system: A498
[2] = system: HCT-116
[3] = system: HCT-15
[4] = system: HL-60
[5] = system: IGROV-1
[6] = system: K562
[7] = system: LXFL 529
[8] = system: Malme-3M
[9] = system: OVCAR-3
[10] = system: OVCAR-4
[11] = system: OVCAR-8
[12] = system: SF-539
[13] = system: SK-MEL-2
[14] = system: SK-MEL-5
[15] = system: SR
[16] = system: SW-620
[17] = system: UO-31
[18] = system: KM12
[19] = system: NCI-H522
[20] = system: OVCAR-5

Row | SMILES | GI50 [1] | GI50 [2] | GI50 [3] [µM] | GI50 [4] | GI50 [5] | GI50 [6] | GI50 [7] | GI50 [8] | GI50 [9] | GI50 [10] | GI50 [11] | GI50 [12] | GI50 [13] | GI50 [14] | GI50 [15] | GI50 [16] | GI50 [17] | GI50 [18] | GI50 [19] | GI50 [20]
1 | CCOC(=O)C(C)(C)Oc1ccc2c(-c3ccc(Cl)cc3)c(-c3ccc(Cl)cc3)c(=O)oc2c1 | > 100 µM (inactive) | 89.5 µM (inactive) | > 100 | 68.7 µM (inactive) | > 100 µM (inactive) | > 100 µM (inactive) | > 100 µM (inactive) | > 100 µM (inactive) | > 100 µM (inactive) | > 100 µM (inactive) | > 100 µM (inactive) | > 100 µM (inactive) | > 100 µM (inactive) | 98.2 µM (inactive) | > 100 µM (inactive) | > 100 µM (inactive) | > 100 µM (inactive) |  |  | 
2 | CC1(OCc2ccccc2)C(=O)N2C1N(C(=O)OCc1ccccc1)CC2(C)C (centres undefined) | 56.9 µM (inactive) | 69.8 µM (inactive) | 68.1 | 29.4 µM (inactive) | 57.3 µM (inactive) | 42.8 µM (inactive) | 31.6 µM (inactive) | 80 µM (inactive) | > 100 µM (inactive) | > 100 µM (inactive) | 34.8 µM (inactive) | > 100 µM (inactive) | 69.3 µM (inactive) | 17.9 µM (inactive) | 30.5 µM (inactive) | > 100 µM (inactive) | 31.4 µM (inactive) |  |  | 
3 | Cn1nc2ccc3nccc(NCCNCCO)c3c2n1 |  | 18.2 µM (inactive) | 44.3 | > 100 µM (inactive) | 68.4 µM (inactive) | 73.5 µM (inactive) | 39.2 µM (inactive) | 36.8 µM (inactive) | 38.3 µM (inactive) | 40.9 µM (inactive) | 36.4 µM (inactive) | 33.6 µM (inactive) |  | 56.5 µM (inactive) | 10 µM (inactive) | 29.4 µM (inactive) | 25.8 µM (inactive) | 35 µM (inactive) | 37.5 µM (inactive) | 25 µM (inactive)
4 | Cn1c(=O)ccc2cc(C(=O)c3ccccc3)ccc21 | 32.6 µM (inactive) | 73.5 µM (inactive) | 53.3 | 23.6 µM (inactive) | 24.7 µM (inactive) | 44.1 µM (inactive) | 45.8 µM (inactive) | > 100 µM (inactive) | 44.4 µM (inactive) | 46.9 µM (inactive) | 58.6 µM (inactive) | 42.3 µM (inactive) | > 100 µM (inactive) | 22.8 µM (inactive) |  | > 100 µM (inactive) |  | > 100 µM (inactive) | 20.4 µM (inactive) | > 100 µM (inactive)
5 | O=C(O)C1CC(c2ccc(F)cc2)=Nc2ccc(F)cc2S1 (centres undefined) | > 100 µM (inactive) | > 100 µM (inactive) | > 100 | > 100 µM (inactive) | > 100 µM (inactive) | > 100 µM (inactive) |  | > 100 µM (inactive) | > 100 µM (inactive) | > 100 µM (inactive) | > 100 µM (inactive) | 92.3 µM (inactive) | > 100 µM (inactive) | > 100 µM (inactive) | > 10 µM (inactive) | > 100 µM (inactive) | > 100 µM (inactive) | > 100 µM (inactive) | > 100 µM (inactive) | > 100 µM (inactive)
6 | O=[N+]([O-])c1ccc(-c2ccc(C3=Nn4c(CNc5ccccc5Cl)nnc4SC3)o2)cc1 |  | > 100 µM (inactive) | 12.9 | > 100 µM (inactive) | > 100 µM (inactive) | 58.3 µM (inactive) | 82.4 µM (inactive) | > 100 µM (inactive) | > 100 µM (inactive) |  | > 100 µM (inactive) | > 100 µM (inactive) | > 100 µM (inactive) |  | > 100 µM (inactive) | > 100 µM (inactive) | > 100 µM (inactive) | > 100 µM (inactive) | > 100 µM (inactive) | > 100 µM (inactive)
7 | CCOC(=O)C1=C(C)N(Cc2ccccc2)C2(O)C=CC(O)=C3C(=O)c4ccccc4C(=O)C312 (centres undefined) | 23.6 µM (inactive) | 10.2 µM (inactive) | 3.82 | 15.1 µM (inactive) | 4.16 µM (inactive) | 15.1 µM (inactive) |  | 2.43 µM (inactive) | 7.67 µM (inactive) | 15.4 µM (inactive) | 19.1 µM (inactive) | 16.3 µM (inactive) | 13.9 µM (inactive) | 10.3 µM (inactive) | 4.37 µM (inactive) | 13.6 µM (inactive) | 9.73 µM (inactive) | 12.1 µM (inactive) | 11.9 µM (inactive) | 15.8 µM (inactive)
8 | COc1ccc(C2Oc3ccc(Cl)cc3C=C2[N+](=O)[O-])cc1OC (centres undefined) | 3.37 µM (inactive) | 0.426 µM (active) | 1.47 | 0.204 µM (active) | 1.56 µM (inactive) | 0.164 µM (active) |  | 1.75 µM (inactive) | 0.719 µM (active) | 1.93 µM (inactive) | 1.12 µM (active) | 1.55 µM (inactive) | 1.48 µM (inactive) | 1.53 µM (inactive) | 0.0661 µM (active) | 0.188 µM (active) | 2 µM (inactive) | 1.48 µM (inactive) | 1.05 µM (active) | 1.5 µM (inactive)
9 | CN(C)c1ccc(/C=C/C=C(/C#N)c2ccccc2)cc1 | 24.3 µM (inactive) | 16.4 µM (inactive) | 6.87 | 2.74 µM (inactive) | 21.4 µM (inactive) | 4.22 µM (inactive) |  | 14 µM (inactive) | 9.91 µM (inactive) | > 38.6 µM (inactive) | 33 µM (inactive) | 16.4 µM (inactive) | 13.7 µM (inactive) | 14.5 µM (inactive) | 3.64 µM (inactive) | 6.34 µM (inactive) | > 46 µM (inactive) | 4.8 µM (inactive) | 10.5 µM (inactive) | > 62.7 µM (inactive)
10 | O=C(NC(Nc1ccc(F)c(Cl)c1)(C(F)(F)F)C(F)(F)F)C(C(F)(F)F)C(F)(F)F | 44.3 µM (inactive) | 16 µM (inactive) | 18.1 | 15.6 µM (inactive) | 13.4 µM (inactive) | 14.5 µM (inactive) |  | 19.1 µM (inactive) | 26.9 µM (inactive) | 29 µM (inactive) | 25.9 µM (inactive) | 22.6 µM (inactive) | 16.6 µM (inactive) | 21.4 µM (inactive) | 28.2 µM (inactive) | 22.1 µM (inactive) | 19.5 µM (inactive) | 17.9 µM (inactive) | 16.8 µM (inactive) | 23.9 µM (inactive)
11 | O=C(Cc1ccccc1)NN1C(=O)C(Cl)C1c1cccc(O)c1 (centres undefined) |  | 13.6 µM (inactive) | 18.7 | 11.8 µM (inactive) | 17.2 µM (inactive) | 6.27 µM (inactive) | 10.6 µM (inactive) | 31.6 µM (inactive) | 14.6 µM (inactive) | 17.7 µM (inactive) | 14 µM (inactive) |  | 27 µM (inactive) |  | 3.58 µM (inactive) | 5.2 µM (inactive) | 15.9 µM (inactive) |  | 9.23 µM (inactive) | 14.4 µM (inactive)
12 | C[C@]12CC[C@H]3[C@@H](CC=C4C[C@@H](O)CC[C@@]43C)[C@@H]1C/C(=C/c1ccccc1)[C@@H]2O | 17.2 µM (inactive) | 8.53 µM (inactive) | 19.7 | > 43 µM (inactive) | 11.8 µM (inactive) | > 23.6 µM (inactive) |  | 27.5 µM (inactive) | 16 µM (inactive) | 19.2 µM (inactive) | 20.9 µM (inactive) | 30.7 µM (inactive) | 20.9 µM (inactive) | 12.1 µM (inactive) | 3.85 µM (inactive) | > 51.8 µM (inactive) | 18.1 µM (inactive) | 23 µM (inactive) | 14.7 µM (inactive) | > 46.7 µM (inactive)
13 | CCC(=O)O[C@H]1CC[C@H]2[C@@H]3CCC4=CC(=O)C=C[C@]4(O)[C@H]3CC[C@]12C | > 100 µM (inactive) | 21.9 µM (inactive) | 15 | 11.9 µM (inactive) | 22.4 µM (inactive) | 3.39 µM (inactive) |  | 48 µM (inactive) | 19.8 µM (inactive) | 28.3 µM (inactive) | 23 µM (inactive) | 29.6 µM (inactive) | 15.9 µM (inactive) | 5.22 µM (inactive) | 2.67 µM (inactive) | 17.9 µM (inactive) | 64.1 µM (inactive) | 18.5 µM (inactive) | 16.7 µM (inactive) | 87.5 µM (inactive)
14 | CC(C)CC(NC(=O)C(CSc1ccc([N+](=O)[O-])cc1)Cc1ccccc1)C(=O)Nc1ccccc1 (centres undefined) | > 100 µM (inactive) | > 100 µM (inactive) | > 100 | 40.9 µM (inactive) | 46.6 µM (inactive) | 85.5 µM (inactive) |  | 27 µM (inactive) | > 100 µM (inactive) | 35.1 µM (inactive) | 48.8 µM (inactive) | 47.9 µM (inactive) | > 100 µM (inactive) | 64.3 µM (inactive) | > 100 µM (inactive) | > 100 µM (inactive) | 43.1 µM (inactive) | 41.4 µM (inactive) | 64.9 µM (inactive) | > 100 µM (inactive)
15 | COC(=O)C(CC(C)C)NC(=O)C(N)Cc1ccc(OCc2ccccc2)cc1 (centres undefined) (H-Tyr(Bn)-Leu-OMe; configuration not given here) | > 10 µM (inactive) | > 10 µM (inactive) | > 10 | 2.54 µM (inactive) | > 10 µM (inactive) | > 10 µM (inactive) |  | 2.9 µM (inactive) | > 10 µM (inactive) | > 10 µM (inactive) | > 10 µM (inactive) | > 10 µM (inactive) | > 10 µM (inactive) | > 10 µM (inactive) | 7.64 µM (inactive) | > 10 µM (inactive) | > 10 µM (inactive) | > 10 µM (inactive) | > 10 µM (inactive) | > 10 µM (inactive)
